One data set has as its target T1, human CCR6 (Homo sapiens, UniProt P51684).
T1 construct: expressed in transfected cells; host or cells: HEK293
T1 sequence (P51684 1-374): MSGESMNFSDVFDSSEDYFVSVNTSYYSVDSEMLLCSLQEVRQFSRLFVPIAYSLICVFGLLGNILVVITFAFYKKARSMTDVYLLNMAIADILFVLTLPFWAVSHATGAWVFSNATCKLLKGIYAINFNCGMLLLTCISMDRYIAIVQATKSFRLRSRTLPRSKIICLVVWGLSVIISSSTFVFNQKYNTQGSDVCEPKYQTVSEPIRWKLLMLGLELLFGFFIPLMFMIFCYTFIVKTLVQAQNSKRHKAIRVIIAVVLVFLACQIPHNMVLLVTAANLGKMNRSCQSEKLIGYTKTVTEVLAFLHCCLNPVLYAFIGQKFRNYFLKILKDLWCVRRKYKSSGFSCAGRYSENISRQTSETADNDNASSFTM
In words: human CCR6 calcium flux activity (FLIPR, HEK293 cells stably expressing human CCR6, CCL20 stimulation). The class given is cell-based. The conditions noted are these: HEK293 cells stably expressing human CCR6, EC80 human MIP-3 alpha/CCL20; read-out: CCR6 inhibitory activity, IC50. Here is the method: The activity of the compounds was evaluated using HEK293 cells stably expressing human CCR6 via the FLIPR platform. A 384-well black cell culture plate (Greiner, 781946) was used, with a seeding density of 20,000 cells/well, and incubated overnight at 37°C in a 5% CO2 incubator. The culture medium in the cell plate wells was removed, and 20 µL of Fluo-4 Direct™ Calcium Assay Buffer (Invitrogen, F10471, Component C), 20 µL of 2× Fluo-4 Direct™ Calcium Assay Reagent (Invitrogen, F10471, Component A) working solution, and 10 µL of 6× test compound working solution were sequentially added to each well. The cell plate was incubated in a 37 °C, 5% CO2 incubator for 50 min, followed by a 10 min incubation at room temperature. Additionally, a 6×EC80 human MIP-3 alpha/CCL20 (MCE, HY-P7262) working solution was prepared. After the incubation was completed, 10 µL/well of the 6×EC80 human MIP-3 alpha/CCL20 working solution was transferred to the cell plate using a FLIPR instrument, and the fluorescence signal changes at an excitation wavelength of 494 nm and an emission wavelength of 516 nm were recorded over 90 seconds. The difference between the maximum fluorescence signal (RFUMax) and the minimum fluorescence signal (RFUMin) was used as the output signal. The compound inhibition rate and the log value of the compound concentration were calculated, and a four-parameter fitting analysis was performed using GraphPad Prism 8 software to obtain the IC50 value of the test compound.

Data set [1] in a line: in vivo pharmacokinetic study in SD rats. The conditions noted are these: male, rat, plasma; for bioavailability: 1 mg/kg PO vs 1 mg/kg IV, read-out: Oral bioavailability F (%). The method, then: 2.2.1 Rats: SD rats, SPF grade, 6 rats per compound, male, body weight range 180-200 g.
2.2.2 Housing conditions: The animals were housed in an SPF-grade animal facility with free access to food and water, three per cage, under a 12/12-hour light/dark cycle (7:00 am/7:00 pm), at a temperature of 23 ± 3°C.
2.2.3 Drug preparation: The compound was precisely weighed, mixed with the required volume of 1% Tween 80, vortexed for 2 min, and then sonicated for 5 min until no visible particles remained. The mixture was subsequently stirred on a magnetic stirrer for 20 min, and the middle layer of the drug solution was collected for administration. For the IV group, the compound was accurately weighed, dissolved in the required volume of 50% PEG400, sonicated for 10 min, and vortexed until clear before administration.
The rats were randomly divided into 2 groups based on body weight, with 3 rats per compound per group. Group 1 was administered a single oral gavage dose (fasted), and Group 2 was administered a single tail vein bolus injection. Blood collection time points: for the po group, blood was collected at 0.167 h, 0.5 h, 1 h, 2 h, 3 h, 4 h, 6 h, and 8 h; for the iv group, blood was collected at 0.033 h, 0.167 h, 0.5 h, 1 h, 2 h, 4 h, 6 h, and 8 h.
After administration to the rats, blood was collected from the orbital venous plexus according to the sampling time points. Approximately 0.2-0.3 mL of blood was collected at each time point into anticoagulant EP tubes (containing 4 µL of EDTA-K2, 375 mg/mL, dried at 50°C). The tubes were slowly inverted up and down three times and stored in an ice box (for no more than 30 minutes). Centrifugation was performed at 4°C at 3000 × g for 10 minutes, and the supernatant was transferred to labeled EP tubes for bioanalytical testing. If testing could not be performed on the same day, the samples were stored at -80°C until analysis (care was taken to avoid multiple freeze/thaw cycles).
The data were analyzed using WinNonlin via a non-compartmental model to obtain PK parameters (Cmax, AUC0-last, AUCinf, T1/2, etc., selected based on different routes of administration). For specific data, please refer to Table 2. Table 2. PK experimental results of compounds in SD rats

In the case of `Cc1cccnc1[C@H](Nc1c(Nc2ccnc(C(=O)N(C)C)c2O)c(=O)c1=O)C12CC(C1)C2` [compound 077, (R)-4-((2-((bicyclo[1.1.1]pentan-1-yl(3-methylpyridin-2-yl)methyl)amino)-3,4-dioxocyclobut-1-en-1-yl)amino)-3-hydroxy-N,N-dimethylpicolinamide], at human CCR6, the concentration for half-maximal inhibition (IC50) was determined as 0.0176 µM. Besides, the bioavailability in data set [1] amounted to 39.8%. In addition, in data set [1] (1 mg/kg, IV), the AUC(0-t) is 0.683 µg·h/mL and the highest level (Cmax) was 2.28 µg/mL. In data set [1] (1 mg/kg, PO), the AUC(0-t) turned out to be 0.272 µg·h/mL and the Cmax worked out at 0.158 µg/mL.

With `Cc1cccnc1[C@H](Nc1c(Nc2ccnc(C(=O)N(C)C)c2O)c(=O)c1=O)C1(C)CC(F)(F)C1` [compound 079, (R)-4-((2-(((3,3-difluoro-1-methylcyclobutyl)(3-methylpyridin-2-yl)methyl)amino)-3,4-dioxocyclobut-1-en-1-yl)amino)-3-hydroxy-N,N-dimethylpicolinamide], the IC50 on human CCR6 was 0.0173 µM. The bioavailability in data set [1] came to 42.5%. In data set [1] (1 mg/kg, IV), this compound had an AUC(0-t) of 1.18 µg·h/mL and a Cmax of 3.67 µg/mL. In data set [1] (1 mg/kg, PO), this compound gave an AUC(0-t) of 0.499 µg·h/mL, a Cmax of 0.566 µg/mL and a half-life of 2.01 h. On to `CN(C)C(=O)c1nccc(Nc2c(N[C@@H](C#CC3CCC3)[C@@]3(C)CC(F)(F)CO3)c(=O)c2=O)c1O` (single isomer, unassigned) [110B], for which the IC50 at human CCR6 is 0.0536 µM. `CN(C)C(=O)c1nccc(Nc2c(N[C@@H](c3ccccc3)C3(C)CCCC3)c(=O)c2=O)c1O` [compound 037, (R)-3-hydroxy-N,N-dimethyl-4-((2-(((1-methylcyclopentyl)(phenyl)methyl)amino)-3,4-dioxocyclobut-1-en-1-yl)amino)picolinamide]: the IC50 on human CCR6 was determined as 0.0958 µM.

With `Cc1cccnc1C(Nc1c(Nc2ccnc(C(=O)N(C)C)c2O)c(=O)c1=O)C1(C)CCC2CC21` (stereo not drawn) [compound 123, 3-hydroxy-N,N-dimethyl-4-((2-(((2-methylbicyclo[3.1.0]hexan-2-yl)(3-methylpyridin-2-yl)methyl)amino)-3,4-dioxocyclobut-1-en-1-yl)amino)picolinamide], the IC50 on human CCR6 was 0.265 µM.

Take `Cc1cncnc1C(Nc1c(Nc2ccnc(C(=O)N(C)C)c2O)c(=O)c1=O)C1(C)CCCC1` (stereo not drawn) [compound 052, 3-hydroxy-N,N-dimethyl-4-((2-(((1-methylcyclopentyl)(5-methylpyrimidin-4-yl)methyl)amino)-3,4-dioxocyclobut-1-en-1-yl)amino)picolinamide]: the IC50 on human CCR6 came to 0.196 µM. In the case of `Cc1cccnc1C(Nc1c(Nc2ccnc(C(=O)N(C)C)c2O)c(=O)c1=O)C1(C)CC2CC2C1` (stereo not drawn) [compound 122, 3-hydroxy-N,N-dimethyl-4-((2-(((3-methylbicyclo[3.1.0]hexan-3-yl)(3-methylpyridin-2-yl)methyl)amino)-3,4-dioxocyclobut-1-en-1-yl)amino)picolinamide], the half-maximal inhibitory concentration (IC50) on human CCR6 is 0.181 µM.

As for `CN(C)C(=O)c1nccc(Nc2c(N[C@@H](c3ncc(F)cc3Cl)C3(C)CCCC3)c(=O)c2=O)c1O` [compound 011, (R)-4-((2-(((3-chloro-5-fluoropyridin-2-yl)(1-methylcyclopentyl)methyl)amino)-3,4-dioxocyclobut-1-en-1-yl)amino)-3-hydroxy-N,N-dimethylpicolinamide], the IC50 at human CCR6 was determined as 0.0225 µM.

As to `CC(C)[C@H](Nc1c(Nc2ccnc(C(=O)N(C)C)c2O)c(=O)c1=O)C1(C)CCCC1` [compound 038, (S)-3-hydroxy-N,N-dimethyl-4-((2-((2-methyl-1-(1-methylcyclopentyl)propyl)amino)-3,4-dioxocyclobut-1-en-1-yl)amino)picolinamide], the IC50 on human CCR6 turned out to be 0.113 µM.

For the compound `Cc1cccnc1[C@H](Nc1c(Nc2ccnc(C(=O)N3CCOCC3)c2O)c(=O)c1=O)C1(C)CCCC1` [compound 059, (R)-3-((3-hydroxy-2-(morpholine-4-carbonyl)pyridin-4-yl)amino)-4-(((1-methylcyclopentyl)(3-methylpyridin-2-yl)methyl)amino)cyclobut-3-ene-1,2-dione], the IC50 at human CCR6 worked out at 0.0136 µM. Turning to `CN(C)C(=O)c1nccc(Nc2c(N[C@@H](c3nccc(F)c3F)C3(C)CCCC3)c(=O)c2=O)c1O` [compound 021, (R)-4-((2-(((3,4-difluoropyridin-2-yl)(1-methylcyclopentyl)methyl)amino)-3,4-dioxocyclobut-1-en-1-yl)amino)-3-hydroxy-N,N-dimethylpicolinamide], the IC50 on human CCR6 worked out at 0.0064 µM. In the case of `CN(C)C(=O)c1nccc(Nc2c(N[C@@H](c3cc(Cl)ccn3)C3(C)CCCC3)c(=O)c2=O)c1O` [compound 012, (R)-4-((2-(((4-chloropyridin-2-yl)(1-methylcyclopentyl)methyl)amino)-3,4-dioxocyclobut-1-en-1-yl)amino)-3-hydroxy-N,N-dimethylpicolinamide], the IC50 on human CCR6 is 0.009 µM. As for `Cc1c(C(Nc2c(Nc3ccnc(C(=O)N(C)C)c3O)c(=O)c2=O)C2(C)CCCC2)nn2c1CCC2` (stereo not drawn) [compound 029, 3-hydroxy-N,N-dimethyl-4-((2-(((3-methyl-5,6-dihydro-4H-pyrrolo[1,2-b]pyrazol-2-yl)(1-methylcyclopentyl)methyl)amino)-3,4-dioxocyclobut-1-en-1-yl)amino)picolinamide], the IC50 on human CCR6 was found to be 0.161 µM.

For the origin of these results see EP4703354A1, “COMPOUND AS CCR6 ANTAGONIST, AND PHARMACEUTICAL COMPOSITION AND USE THEREOF” (Wuhan Createrna Science and Technology Co.,Ltd., priority 2023, dated 2024).
